Target: Casein kinase II subunit alpha (Homo sapiens, UniProt P68400)
Experiment: Radiometric Kinase Assay

Sequence of Casein kinase II subunit alpha (P68400 whole entry): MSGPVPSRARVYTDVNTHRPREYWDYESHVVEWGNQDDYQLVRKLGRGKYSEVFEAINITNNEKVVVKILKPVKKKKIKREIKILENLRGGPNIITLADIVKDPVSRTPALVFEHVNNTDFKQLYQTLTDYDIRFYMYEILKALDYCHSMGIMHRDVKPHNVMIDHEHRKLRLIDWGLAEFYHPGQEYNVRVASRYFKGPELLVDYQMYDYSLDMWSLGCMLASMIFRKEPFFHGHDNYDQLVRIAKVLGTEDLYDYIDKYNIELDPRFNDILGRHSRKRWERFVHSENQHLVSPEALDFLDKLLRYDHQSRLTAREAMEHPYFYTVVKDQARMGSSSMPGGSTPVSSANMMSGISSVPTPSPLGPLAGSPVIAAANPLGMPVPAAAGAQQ

Work on `CC(C)COC(=O)c1[nH]c2ccc(F)cc2c1-c1cn(CC2CCN(CCNS(=O)(=O)c3ccc(-c4ccccc4C#N)cc3)CC2)nn1` [US20230278983, Code AB1076] yielded an IC50 of 46 nM.
